Results taken from ChEMBL document CHEMBL3091421, “Discovery of benzo[d]imidazo[5,1-b]thiazole as a new class of phosphodiesterase 10A inhibitors” (Bioorg Med Chem Lett, 2013).

Assays:
[1] = biological target: Dual 3',5'-cyclic-AMP and -GMP phosphodiesterase 11A (Homo sapiens) (UniProt Q9HCR9); test: Inhibition of PDE11A (unknown origin) using [3H]-cAMP as substrate at 10 uM after 30 mins by radiometric assay
Rattus norvegicus [2] = test: Antipsychotic activity in Sprague-Dawley rat assessed as reduction in quipazine-induced head-twitches at 0.3 mg/kg, ip administered 15 mins prior to quipazine-challenge measured immediately relative to vehicle-treated control; format: functional; parameters: scale not given: the % may be the effect or the level left; conditions: route intraperitoneal
Rattus norvegicus [3] = test: Antipsychotic activity in Sprague-Dawley rat conditioned avoidance response model assessed as reduction in avoidance at 6 mg/kg, ip after 15 mins relative to vehicle-treated control; format: functional; parameters: scale not given: the % may be the effect or the level left; conditions: route intraperitoneal
Rattus norvegicus [4] = test: Antipsychotic activity in Sprague-Dawley rat psychosis model assessed as inhibition of MK-801-induced locomotion at 1 mg/kg, ip administered 5 mins prior to MK-801-challenge measured after 15 mins up to 1 hr relative to vehicle-treated control; format: functional; conditions: route intraperitoneal
Homo sapiens [5] = species: Homo sapiens; test: Selectivity ratio of IC50 for PDE3A (unknown origin) to IC50 for human recombinant PDE10A
[6] = Cmax in Sprague-Dawley rat at 10 mg/kg, po by LC-MS/MS analysis; format: ADME, organism-based; parameters: dose 10 mg/kg, route oral; conditions: in vivo
Rattus norvegicus [7] = test: Antipsychotic activity in Sprague-Dawley rat psychosis model assessed as inhibition of MK-801-induced ataxia at 0.3 mg/kg, ip administered 5 mins prior to MK-801-challenge measured after 15 mins up to 1 hr relative to vehicle-treated control; format: functional; conditions: route intraperitoneal
Rattus norvegicus [8] = test: Antipsychotic activity in Sprague-Dawley rat psychosis model assessed as inhibition of MK-801-induced ataxia at 1 mg/kg, ip administered 5 mins prior to MK-801-challenge measured after 15 mins up to 1 hr relative to vehicle-treated control; format: functional; conditions: route intraperitoneal
Homo sapiens [9] = species: Homo sapiens; test: Selectivity ratio of IC50 for PDE5A (unknown origin) to IC50 for human recombinant PDE10A
Rattus norvegicus [10] = test: Antipsychotic activity in Sprague-Dawley rat psychosis model assessed as inhibition of MK-801-induced stereotypy at 0.3 mg/kg, ip administered 5 mins prior to MK-801-challenge measured after 15 mins up to 1 hr relative to vehicle-treated control; format: functional; conditions: route intraperitoneal
Homo sapiens [11] = species: Homo sapiens; test: Selectivity ratio of IC50 for PDE1A (unknown origin) to IC50 for human recombinant PDE10A
Homo sapiens [12] = species: Homo sapiens; test: Selectivity ratio of IC50 for PDE2A (unknown origin) to IC50 for human recombinant PDE10A
[13] = AUC (0 to 24 hrs) in Sprague-Dawley rat at 10 mg/kg, po by LC-MS/MS analysis; format: ADME, organism-based; parameters: time < 24 hr, dose 10 mg/kg, route oral; conditions: plasma
Rattus norvegicus [14] = test: Antipsychotic activity in ip dosed Sprague-Dawley rat psychosis model assessed as inhibition of MK-801-induced locomotion administered 5 mins prior to MK-801-challenge measured after 15 mins up to 1 hr relative to vehicle-treated control; format: functional
Rattus norvegicus [15] = test: Antipsychotic activity in Sprague-Dawley rat assessed as reduction in quipazine-induced head-twitches at 3 mg/kg, ip administered 15 mins prior to quipazine-challenge measured immediately relative to vehicle-treated control; format: functional; parameters: scale not given: the % may be the effect or the level left; conditions: route intraperitoneal
Mus musculus [16] = test: Antipsychotic activity in ip dosed CD-1 mouse assessed as reduction in apomorphine-induced sniffing behavior administered 15 mins prior to apomorphine-challenge measured immediately relative to vehicle-treated control; format: functional; conditions: CD-1, ip
Rattus norvegicus [17] = test: Antipsychotic activity in Sprague-Dawley rat psychosis model assessed as inhibition of MK-801-induced locomotion at 6 mg/kg, ip administered 5 mins prior to MK-801-challenge measured after 15 mins up to 1 hr relative to vehicle-treated control; format: functional; conditions: route intraperitoneal
Rattus norvegicus [18] = test: Antipsychotic activity in Sprague-Dawley rat psychosis model assessed as inhibition of MK-801-induced stereotypy at 3 mg/kg, ip administered 5 mins prior to MK-801-challenge measured after 15 mins up to 1 hr relative to vehicle-treated control; format: functional; conditions: route intraperitoneal
Rattus norvegicus [19] = test: Antipsychotic activity in Sprague-Dawley rat psychosis model assessed as inhibition of MK-801-induced hyperlocomotion at 10 mg/kg, ip administered 5 mins prior to MK-801-challenge measured after 15 mins up to 1 hr; format: functional; conditions: route intraperitoneal
Homo sapiens [20] = species: Homo sapiens; test: Selectivity ratio of IC50 for PDE7A1 (unknown origin) to IC50 for human recombinant PDE10A
Homo sapiens [21] = species: Homo sapiens; test: Selectivity ratio of IC50 for PDE4D (unknown origin) to IC50 for human recombinant PDE10A
Mus musculus [22] = test: Ratio of ED50 for antipsychotic activity in ip dosed CD-1 mouse assessed as reduction in apomorphine-induced sniffing behavior to ED50 for antipsychotic activity in ip dosed CD-1 mouse assessed as reduction in apomorphine-induced climbing behavior; format: functional
Rattus norvegicus [23] = test: Antipsychotic activity in ip dosed Sprague-Dawley rat conditioned avoidance response model assessed as reduction in avoidance after 15 mins relative to vehicle-treated control; format: functional
Rattus norvegicus [24] = test: Antipsychotic activity in Sprague-Dawley rat psychosis model assessed as inhibition of MK-801-induced stereotypy at 1 mg/kg, ip administered 5 mins prior to MK-801-challenge measured after 15 mins up to 1 hr relative to vehicle-treated control; format: functional; conditions: route intraperitoneal
[25] = biological target: cGMP-inhibited 3',5'-cyclic phosphodiesterase 3A (Homo sapiens) (UniProt Q14432); test: Inhibition of PDE3A (unknown origin) using cAMP as substrate at 10 uM after 30 mins by HTRF method
cGMP-inhibited 3',5'-cyclic phosphodiesterase 3A (Homo sapiens), sequence (Q14432 whole entry): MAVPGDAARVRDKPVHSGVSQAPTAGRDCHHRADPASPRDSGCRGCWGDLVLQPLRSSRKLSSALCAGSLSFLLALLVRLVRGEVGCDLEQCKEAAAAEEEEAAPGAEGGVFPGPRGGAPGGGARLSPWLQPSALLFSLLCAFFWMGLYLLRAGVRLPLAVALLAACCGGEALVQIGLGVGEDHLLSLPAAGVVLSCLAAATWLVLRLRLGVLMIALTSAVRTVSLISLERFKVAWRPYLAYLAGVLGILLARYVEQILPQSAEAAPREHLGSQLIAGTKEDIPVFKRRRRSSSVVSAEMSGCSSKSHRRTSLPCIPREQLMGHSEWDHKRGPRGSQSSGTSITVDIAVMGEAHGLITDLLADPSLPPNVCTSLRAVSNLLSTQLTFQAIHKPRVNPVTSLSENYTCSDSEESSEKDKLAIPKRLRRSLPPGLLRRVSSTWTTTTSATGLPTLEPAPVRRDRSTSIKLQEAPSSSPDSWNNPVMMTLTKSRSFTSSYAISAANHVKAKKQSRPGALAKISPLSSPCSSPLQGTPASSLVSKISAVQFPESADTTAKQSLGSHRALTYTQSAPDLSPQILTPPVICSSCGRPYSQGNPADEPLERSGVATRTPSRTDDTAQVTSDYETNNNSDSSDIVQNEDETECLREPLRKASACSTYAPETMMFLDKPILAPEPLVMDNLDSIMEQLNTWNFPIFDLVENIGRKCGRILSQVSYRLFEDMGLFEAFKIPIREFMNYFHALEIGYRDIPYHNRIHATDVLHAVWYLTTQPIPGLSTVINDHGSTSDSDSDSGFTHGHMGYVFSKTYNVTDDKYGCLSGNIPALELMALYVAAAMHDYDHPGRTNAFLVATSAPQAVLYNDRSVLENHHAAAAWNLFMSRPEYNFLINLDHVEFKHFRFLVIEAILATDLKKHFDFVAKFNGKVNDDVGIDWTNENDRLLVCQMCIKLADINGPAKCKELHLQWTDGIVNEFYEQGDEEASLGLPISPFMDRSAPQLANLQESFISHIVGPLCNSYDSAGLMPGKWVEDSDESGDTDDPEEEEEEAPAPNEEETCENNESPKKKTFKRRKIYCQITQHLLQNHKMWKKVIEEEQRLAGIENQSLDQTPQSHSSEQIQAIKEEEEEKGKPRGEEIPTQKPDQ

[26] = Half life in Sprague-Dawley rat at 10 mg/kg, po by LC-MS/MS analysis; format: ADME, organism-based; parameters: dose 10 mg/kg, route oral; conditions: in vivo
[27] = Ratio of drug level in brain to plasma in Sprague-Dawley rat at 10 mg/kg, po after 30 mins; format: ADME, organism-based; parameters: dose 10 mg/kg, route oral; conditions: brain and plasma, read-out: BPR
Rattus norvegicus [28] = test: Antipsychotic activity in ip dosed Sprague-Dawley rat psychosis model assessed as inhibition of MK-801-induced stereotypy administered 5 mins prior to MK-801-challenge measured after 15 mins up to 1 hr relative to vehicle-treated control; format: functional, organism-based
Homo sapiens [29] = species: Homo sapiens; test: Selectivity ratio of IC50 for PDE11A (unknown origin) to IC50 for human recombinant PDE10A
Rattus norvegicus [30] = test: Antipsychotic activity in Sprague-Dawley rat conditioned avoidance response model assessed as reduction in avoidance at 3 mg/kg, ip after 15 mins relative to vehicle-treated control; format: functional; parameters: scale not given: the % may be the effect or the level left; conditions: route intraperitoneal
Rattus norvegicus [31] = test: Antipsychotic activity in Sprague-Dawley rat psychosis model assessed as inhibition of MK-801-induced stereotypy at 10 mg/kg, ip administered 5 mins prior to MK-801-challenge measured after 15 mins up to 1 hr relative to vehicle-treated control; format: functional; conditions: route intraperitoneal
Rattus norvegicus [32] = test: Antipsychotic activity in ip dosed Sprague-Dawley rat assessed as reduction in quipazine-induced head-twitches administered 15 mins prior to quipazine-challenge measured immediately relative to vehicle-treated control; format: functional
[33] = biological target: High affinity cAMP-specific and IBMX-insensitive 3',5'-cyclic phosphodiesterase 8A (Homo sapiens) (UniProt O60658); test: Inhibition of PDE8A (unknown origin) using [3H]-cAMP as substrate at 10 uM after 30 mins by radiometric assay
High affinity cAMP-specific and IBMX-insensitive 3',5'-cyclic phosphodiesterase 8A (Homo sapiens), sequence (O60658 whole entry): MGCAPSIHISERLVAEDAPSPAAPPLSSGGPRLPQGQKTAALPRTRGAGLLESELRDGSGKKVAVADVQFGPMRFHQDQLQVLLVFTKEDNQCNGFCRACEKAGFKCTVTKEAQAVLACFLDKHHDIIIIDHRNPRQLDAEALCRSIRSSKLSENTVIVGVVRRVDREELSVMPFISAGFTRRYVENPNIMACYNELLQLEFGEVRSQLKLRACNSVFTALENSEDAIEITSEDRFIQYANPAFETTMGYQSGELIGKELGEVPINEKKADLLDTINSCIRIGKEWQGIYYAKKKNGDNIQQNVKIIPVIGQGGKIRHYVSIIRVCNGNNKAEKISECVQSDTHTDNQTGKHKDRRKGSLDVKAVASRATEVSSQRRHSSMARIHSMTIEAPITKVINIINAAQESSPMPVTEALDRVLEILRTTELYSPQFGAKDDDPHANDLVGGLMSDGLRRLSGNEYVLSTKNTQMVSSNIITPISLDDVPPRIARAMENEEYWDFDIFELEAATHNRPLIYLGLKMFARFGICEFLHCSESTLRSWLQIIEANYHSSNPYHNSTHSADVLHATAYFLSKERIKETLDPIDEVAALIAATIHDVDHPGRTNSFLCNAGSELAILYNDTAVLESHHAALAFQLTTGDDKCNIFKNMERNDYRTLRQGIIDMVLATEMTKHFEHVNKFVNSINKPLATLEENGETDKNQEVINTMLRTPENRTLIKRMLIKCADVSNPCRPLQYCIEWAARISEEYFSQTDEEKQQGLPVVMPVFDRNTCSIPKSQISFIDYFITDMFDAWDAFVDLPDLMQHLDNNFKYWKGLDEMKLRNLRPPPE

Rattus norvegicus [34] = test: Antipsychotic activity in Sprague-Dawley rat psychosis model assessed as inhibition of MK-801-induced ataxia at 3 mg/kg, ip administered 5 mins prior to MK-801-challenge measured after 15 mins up to 1 hr relative to vehicle-treated control; format: functional; conditions: route intraperitoneal

Dual 3',5'-cyclic-AMP and -GMP phosphodiesterase 11A (Homo sapiens), sequence (Q9HCR9 whole entry, looked up): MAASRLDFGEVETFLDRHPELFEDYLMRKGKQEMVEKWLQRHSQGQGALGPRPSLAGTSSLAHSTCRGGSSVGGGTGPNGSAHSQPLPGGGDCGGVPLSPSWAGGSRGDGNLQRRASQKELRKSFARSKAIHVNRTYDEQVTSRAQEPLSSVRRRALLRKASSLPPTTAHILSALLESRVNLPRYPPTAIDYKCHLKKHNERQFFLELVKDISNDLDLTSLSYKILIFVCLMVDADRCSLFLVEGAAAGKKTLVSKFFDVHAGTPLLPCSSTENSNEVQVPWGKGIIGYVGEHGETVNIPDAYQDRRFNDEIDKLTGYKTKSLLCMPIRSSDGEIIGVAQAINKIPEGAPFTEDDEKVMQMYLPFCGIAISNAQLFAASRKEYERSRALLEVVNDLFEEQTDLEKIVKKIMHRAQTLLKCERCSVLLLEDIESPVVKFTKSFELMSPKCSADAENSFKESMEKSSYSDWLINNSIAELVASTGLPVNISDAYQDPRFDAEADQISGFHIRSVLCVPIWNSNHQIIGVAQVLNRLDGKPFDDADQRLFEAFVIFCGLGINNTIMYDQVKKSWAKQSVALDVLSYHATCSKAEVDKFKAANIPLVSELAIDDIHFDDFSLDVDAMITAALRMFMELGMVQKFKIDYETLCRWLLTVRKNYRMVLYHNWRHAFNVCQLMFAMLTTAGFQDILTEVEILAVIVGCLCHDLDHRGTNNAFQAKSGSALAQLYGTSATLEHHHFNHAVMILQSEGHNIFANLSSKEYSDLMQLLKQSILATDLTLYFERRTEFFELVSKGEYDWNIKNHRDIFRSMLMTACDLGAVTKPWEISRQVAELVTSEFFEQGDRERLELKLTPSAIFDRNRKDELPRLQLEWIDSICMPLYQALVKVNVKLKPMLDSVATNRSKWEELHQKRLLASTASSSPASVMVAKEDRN

SMILES: Cc1nc(C2CCOCC2)n2c1sc1cc(OCc3ccc4ccccc4n3)ccc12
- inhibition [1]: 19.2%
- Activity (Rattus norvegicus [2]): 25%
- Activity (Rattus norvegicus [3]): 94%
- inhibition in vivo at 1 mg/kg (Rattus norvegicus [4]): 41%
- Ratio IC50 (Homo sapiens [5]): > 500
- Cmax [6]: 720 ng/mL
- inhibition in vivo at 0.3 mg/kg (Rattus norvegicus [7]): 3%
- inhibition in vivo at 1 mg/kg (Rattus norvegicus [8]): 10%
- Ratio IC50 (Homo sapiens [9]): > 500
- inhibition in vivo at 0.3 mg/kg (Rattus norvegicus [10]): 58%
- Ratio IC50 (Homo sapiens [11]): > 500
- Ratio IC50 (Homo sapiens [12]): > 500
- AUC(0-t) at 24 h [13]: 2830 ng·h/mL
- ED50 (Rattus norvegicus [14]): 1.44 mg/kg
- inhibition (Rattus norvegicus [14]): Dose-dependent effect
- Activity (Rattus norvegicus [15]): 67%
- ED50 (Mus musculus [16]): 16.3 mg/kg
- inhibition in vivo at 6 mg/kg (Rattus norvegicus [17]): 76%
- inhibition in vivo at 3 mg/kg (Rattus norvegicus [18]): 27%
- inhibition in vivo at 10 mg/kg (Rattus norvegicus [19]): 92%
- Ratio IC50 (Homo sapiens [20]): > 500
- Ratio IC50 (Homo sapiens [21]): > 500
- Ratio ED50 (Mus musculus [22]): 6.08
- Activity (Rattus norvegicus [23]): Dose-dependent effect
- ED50 (Rattus norvegicus [23]; 0.25 h): 1.6 mg/kg
- inhibition in vivo at 1 mg/kg (Rattus norvegicus [24]): 27%
- inhibition [25]: 11.3%
- half-life [26]: 2.1 h
- Kp at 0.5 h [27]: 1.82
- inhibition (Rattus norvegicus [28]): Dose-dependent effect
- Ratio IC50 (Homo sapiens [29]): > 500
- Activity (Rattus norvegicus [30]): 67%
- inhibition in vivo at 10 mg/kg (Rattus norvegicus [31]): 66%
- ED50 (Rattus norvegicus [32]): 1.27 mg/kg
- inhibition [33]: 18.5%
- inhibition in vivo at 3 mg/kg (Rattus norvegicus [34]): 56%
